The values below come from US9457008B2, “Joint product comprising synephrine and topiramate” (Institute of Pharmacology and Toxicology Academy of …, priority 2012, dated 2016).

Each structure is given as a SMILES string.

The nature of the data set: Effects of different dissolution media on release rate of sustained-release pellet of topiramate. The class given is physicochemical. The following applies: 0.1 mol/L HCl (pH1.2), 37° C. The protocol:
In order to verify whether acidic, basic solvent media would influence the release rate of the sustained-release pellets of the present invention, 0.1 mol/L HCl (pH1.2) was prepared as artificial gastric fluid, […] phosphate buffer (pH6.8) was prepared as artificial intestinal fluid, and these media and water (500 ml) were used as release media, rotation speed was 100 rpm, 37° C. Samples (5 ml, supplemented with equivalent volume of media at the meantime) were taken at 1, 2, 4, 8, 12, 16, 20, 24 h, filtrated, and the subsequent filtrates were used as test solutions. High performance liquid chromatography (Appendix V D, Part II of Chinese Pharmacopoeia, 2010 Edition) was used, octylsilane-bonded silica gel was used as packing agent, 50% methanol was mobile phase, differential refractive detector was used, flow rate was 1.5 ml per minute. 200 μl of test solution was taken, injected in liquid chromatograph, the peak area of topiramate as main drug was recorded; topiramate was separately taken as control sample and measured by the same method, and accumulative release percentages of drug at different time points were calculated by external standard method. The release profile of sample of Batch 1 in Example 16 (2) in the above media were drawn, and the results were shown in FIG. 4.

`CC1(C)O[C@@H]2[C@@H](CO[C@@]3(COS(N)(=O)=O)OC(C)(C)O[C@@H]23)O1` [topiramate, 2,3,4,5-bis-O-(1-methylethylene)-β-D-fructopyranose sulfamate]: the “stability in pH1.2 artificial gastric fluid” value was “unstable”.
